Patent US8173709B2, “Anti-infective methods for treating pathogen-induced disordered tissues” (priority 1999, dated 2012)
“Also recorded” adds a separate entry of the source. Where two headings read alike, the source gives them in different places.

Experiments:
[1] = test system: Vaccinia virus (WR strain); design: species or system mice; settings: mouse, in vivo
vaccinia virus = type: in vivo, mice; settings: more vigorous rubbing in; treatment continued until death
[2] = test system: Vaccinia virus (WR strain); design: species or system mice; settings: mouse, in vivo; remark: listed apart in the source

With benzalkonium chloride the Survivors/Total [1] was 0/10, the protection from death [1] was “No protection from death” and the “benefit in terms of survival or suppressing lesion severity” value (vaccinia virus) was “no benefit”. The Survivors/Total [2] was 0/10, the “mean day of death / survival time compared to water” value [2] was “longer than those respective groups treated with water, but the results were not statistically significant; also recorded: slightly longer survival times” and the protection from death [2] was “No protection from death”.
